The values below come from article PMC7319900 (Nature, 2020).

The target of one assay is T1, BaiCD from C. hiranonis (Peptacetobacter hiranonis, UniProt Q9RB48).
T1 sequence (Q9RB48 1-639): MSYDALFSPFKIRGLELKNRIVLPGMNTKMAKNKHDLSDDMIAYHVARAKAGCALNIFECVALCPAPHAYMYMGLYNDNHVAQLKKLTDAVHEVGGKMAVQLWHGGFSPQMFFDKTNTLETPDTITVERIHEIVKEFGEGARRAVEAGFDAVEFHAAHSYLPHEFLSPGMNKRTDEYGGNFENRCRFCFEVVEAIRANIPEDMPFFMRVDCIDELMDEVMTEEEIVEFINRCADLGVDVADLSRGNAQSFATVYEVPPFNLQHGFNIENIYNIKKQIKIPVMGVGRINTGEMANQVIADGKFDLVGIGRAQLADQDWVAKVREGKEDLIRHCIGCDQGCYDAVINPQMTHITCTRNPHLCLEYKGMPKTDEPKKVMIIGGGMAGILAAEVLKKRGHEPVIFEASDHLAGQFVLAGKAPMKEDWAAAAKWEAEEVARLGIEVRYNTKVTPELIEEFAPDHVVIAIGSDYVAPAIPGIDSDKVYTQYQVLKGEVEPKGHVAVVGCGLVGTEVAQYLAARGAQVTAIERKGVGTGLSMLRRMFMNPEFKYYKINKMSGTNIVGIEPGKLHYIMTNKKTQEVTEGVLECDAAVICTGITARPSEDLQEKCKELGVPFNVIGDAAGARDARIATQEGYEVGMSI
As to the kind of experiment: LC-MS of acid-precipitated purified enzyme. Conditions: as purified after expression and lysis with added flavin. The assay is classed as binding.

The next assay concerns the target T2, BaiH from C. scindens ([Clostridium] scindens, UniProt P32370).
T2 sequence (P32370 1-661): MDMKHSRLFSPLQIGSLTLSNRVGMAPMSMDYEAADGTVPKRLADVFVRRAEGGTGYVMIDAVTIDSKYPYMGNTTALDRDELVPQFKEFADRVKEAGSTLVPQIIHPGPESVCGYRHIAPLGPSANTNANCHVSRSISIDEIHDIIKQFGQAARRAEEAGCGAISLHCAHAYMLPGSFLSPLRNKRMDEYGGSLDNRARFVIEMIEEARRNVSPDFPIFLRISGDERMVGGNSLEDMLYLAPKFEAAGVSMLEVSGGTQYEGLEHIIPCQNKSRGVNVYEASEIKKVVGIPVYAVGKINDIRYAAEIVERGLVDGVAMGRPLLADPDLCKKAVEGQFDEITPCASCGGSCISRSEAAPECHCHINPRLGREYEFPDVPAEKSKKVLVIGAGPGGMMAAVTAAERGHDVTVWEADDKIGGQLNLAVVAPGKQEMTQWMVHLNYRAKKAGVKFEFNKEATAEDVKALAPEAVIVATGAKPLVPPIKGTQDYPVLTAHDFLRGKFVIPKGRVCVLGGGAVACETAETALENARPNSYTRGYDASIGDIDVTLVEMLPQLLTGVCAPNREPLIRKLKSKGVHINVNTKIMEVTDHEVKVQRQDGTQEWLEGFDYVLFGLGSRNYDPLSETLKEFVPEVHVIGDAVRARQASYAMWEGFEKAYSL
In words: LC-MS of acid-precipitated purified enzyme. The class given is binding. The conditions noted are these: as purified after expression and lysis with added flavin.

For another assay, the target named is T3, BaiA2 from C. scindens ([Clostridium] scindens, UniProt P19337).
T3 sequence (P19337 1-249): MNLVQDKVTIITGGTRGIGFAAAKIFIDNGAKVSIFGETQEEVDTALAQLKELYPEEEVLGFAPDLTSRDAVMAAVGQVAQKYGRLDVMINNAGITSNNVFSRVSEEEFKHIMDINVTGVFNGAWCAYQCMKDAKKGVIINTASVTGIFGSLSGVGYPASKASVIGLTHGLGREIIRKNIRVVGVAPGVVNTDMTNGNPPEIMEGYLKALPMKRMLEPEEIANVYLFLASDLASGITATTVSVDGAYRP
In words: LC-MS extracted ion chromatograms. The class given is biochemical. Conditions: reduction to DCA; experiment performed once.

In the case of `Cc1cc2nc3c(=O)[nH]c(=O)nc-3n(C[C@H](O)[C@H](O)[C@H](O)COP(=O)(O)OP(=O)(O)OC[C@H]3O[C@@H](n4cnc5c(N)ncnc54)[C@H](O)[C@@H]3O)c2cc1C` [FAD], the “LC-MS of acid-precipitated purified enzyme; UV-vis” value at BaiCD from C. hiranonis is “The presence of FAD and FMN were confirmed by precipitating purified enzyme with sulfuric acid”; at BaiH from C. scindens, “The presence of FAD and FMN were confirmed by precipitating purified enzyme with sulfuric acid”.

Regarding `Cc1cc2nc3c(=O)[nH]c(=O)nc-3n(C[C@H](O)[C@H](O)[C@H](O)COP(=O)(O)O)c2cc1C` [FMN], the “LC-MS of acid-precipitated purified enzyme; UV-vis” value on BaiCD from C. hiranonis is “The presence of FAD and FMN were confirmed by precipitating purified enzyme with sulfuric acid”; on BaiH from C. scindens it was “The presence of FAD and FMN were confirmed by precipitating purified enzyme with sulfuric acid”.

`C[C@H](CCC(=O)O)[C@H]1CC[C@H]2[C@@H]3CC[C@@H]4CC(=O)CC[C@]4(C)[C@H]3C[C@H](O)[C@]12C` [compound 8, 3-oxo-deoxycholic acid]: the “LC-MS extracted ion chromatograms” value on BaiA2 from C. scindens is reported as “conversion of 3-oxo-DCA to DCA by recombinant BaiA2”.
